The values that follow come from ChEMBL document CHEMBL1201862, “PubChem BioAssay data set” (2004).

Test systems include NCI/ADR-RES; LOX IMVI; HT-29; HOP-62; HOP-92; A549; SN12C; Malme-3M; KM12; SW-620; MDA-MB-435; SK-OV-3; UO-31; NCI-H460; RPMI-8226; DU-145; ACHN; OVCAR-4; HL-60; SF-268.
What all share (test): NCI-60 cell line screen, 48 h

Each structure is given as a SMILES string.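 Five concentrations, 48 hours, 96-well plates. GI50: concentration for 50% inhibition of growth.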 Calls of active or inactive are those of the source. Cut-off read from the data, not from the text of the source: active = GI50 up to about 1.1 µM and inactive = higher. Bounds are passed on as bounds.

For `N#Cc1c(O)nc2[nH]nc(/N=N\c3c(O)ccc4ccccc34)c2c1-c1ccc(Cl)cc1`, the GI50 in the assay with NCI/ADR-RES was 0.0975 µM (active); in the assay with LOX IMVI, 0.057 µM (active); in the assay on HT-29, 0.123 µM (active); in the assay on HOP-62, 0.164 µM (active); in the assay with HOP-92 it was 0.234 µM (active); with A549, 0.312 µM (active). In addition, the GI50 in the assay with SN12C is 0.391 µM (active); in the assay on Malme-3M it was 0.143 µM (active); in the assay with KM12 it was 0.403 µM (active); in the assay with SW-620 it was 0.163 µM (active); in the assay with MDA-MB-435, 0.789 µM (active); in the assay with SK-OV-3 it was 0.187 µM (active). Moreover, the GI50 in the assay on UO-31 was 0.175 µM (active); in the assay with NCI-H460, 0.0792 µM (active); with RPMI-8226, 1.56 µM (inactive); in the assay with DU-145, 0.17 µM (active); in the assay on ACHN it was 0.296 µM (active); in the assay on OVCAR-4 it was 0.241 µM (active). The GI50 in the assay on HL-60 was 0.0713 µM (active); with SF-268, 0.0682 µM (active).

Take `CC(=NNC(=S)Nc1ccc(C)cc1)c1cccc(C(C)=NNC(=S)Nc2ccc(C)cc2)n1`: the GI50 in the assay on NCI/ADR-RES was 5 µM (inactive); in the assay on LOX IMVI, 9.91 µM (inactive); with HT-29 it was 11.9 µM (inactive); in the assay with HOP-62, 9.82 µM (inactive); with HOP-92, 10 µM (inactive); in the assay on A549, 12.9 µM (inactive). For the same compound, the GI50 with SN12C is 21.5 µM (inactive); with Malme-3M, 2.06 µM (inactive); in the assay with KM12, 13.8 µM (inactive); with SW-620, 10.9 µM (inactive); in the assay on MDA-MB-435, 13.6 µM (inactive); with SK-OV-3, 47.3 µM (inactive). Moreover, the GI50 in the assay with UO-31 is 6.68 µM (inactive); in the assay with NCI-H460, 6.47 µM (inactive); in the assay on RPMI-8226 it was 19.2 µM (inactive); in the assay with DU-145, > 100 µM (inactive); in the assay on ACHN, 5.66 µM (inactive); with OVCAR-4 it was 10.9 µM (inactive). Further, the GI50 in the assay on HL-60 is 3.97 µM (inactive); with SF-268, > 100 µM (inactive).
